Legend:
[1] = Half life in human liver microsomes; type: ADME, Microsome
[2] = Intrinsic clearance in human liver microsomes; type: ADME, Microsome
[3] = Lipophilicity, log D of the compound; type: physicochemical; settings: octanol/water
[4] = Dissociation constant, pKa of the compound; type: physicochemical
[5] = target: High affinity cAMP-specific and IBMX-insensitive 3',5'-cyclic phosphodiesterase 8B (Homo sapiens, UniProt O95263); assay: Inhibition of PDE8B
[6] = Clearance in rat; type: ADME, organism-based; settings: in vivo
[7] = Oral bioavailability in rat; type: ADME, organism-based; settings: in vivo
[8] = Volume of distribution at steady state in rat; type: ADME, organism-based; settings: in vivo, read-out: Vdss

Sequence of High affinity cAMP-specific and IBMX-insensitive 3',5'-cyclic phosphodiesterase 8B (O95263 whole entry): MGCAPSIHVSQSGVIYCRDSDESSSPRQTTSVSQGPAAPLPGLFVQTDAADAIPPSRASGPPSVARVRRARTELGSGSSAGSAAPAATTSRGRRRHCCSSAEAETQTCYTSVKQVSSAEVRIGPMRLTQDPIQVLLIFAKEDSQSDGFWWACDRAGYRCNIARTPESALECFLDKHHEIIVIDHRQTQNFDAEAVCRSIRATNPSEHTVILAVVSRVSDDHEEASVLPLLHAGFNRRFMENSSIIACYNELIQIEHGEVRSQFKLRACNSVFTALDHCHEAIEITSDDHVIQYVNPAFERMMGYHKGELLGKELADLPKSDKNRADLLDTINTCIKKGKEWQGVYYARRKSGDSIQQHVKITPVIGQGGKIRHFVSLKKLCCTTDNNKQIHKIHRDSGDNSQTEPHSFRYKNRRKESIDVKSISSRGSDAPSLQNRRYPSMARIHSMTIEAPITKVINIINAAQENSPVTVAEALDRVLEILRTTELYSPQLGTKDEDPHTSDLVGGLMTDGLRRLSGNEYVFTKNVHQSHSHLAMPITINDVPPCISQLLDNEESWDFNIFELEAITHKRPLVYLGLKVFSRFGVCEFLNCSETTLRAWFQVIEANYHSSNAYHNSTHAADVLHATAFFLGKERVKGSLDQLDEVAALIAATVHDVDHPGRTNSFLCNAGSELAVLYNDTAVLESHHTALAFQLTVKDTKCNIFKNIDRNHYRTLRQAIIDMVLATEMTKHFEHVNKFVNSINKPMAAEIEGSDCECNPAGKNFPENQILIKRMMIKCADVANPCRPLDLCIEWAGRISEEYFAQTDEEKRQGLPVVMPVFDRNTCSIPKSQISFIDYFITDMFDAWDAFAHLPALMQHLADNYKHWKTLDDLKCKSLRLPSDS

CC[C@H]1C[C@@H](C(=O)NCC2CCOCC2)CN(Cc2nc(-c3ccccc3)oc2C)C1 showed a half-life [1] of 4.32 min and a microsomal CLint [2] of 226 µL/min/mg.
With Cc1cccc(CNC(=O)[C@H]2C[C@H](c3nnc(C)o3)CN(Cc3nc(-c4ccccc4)oc3C)C2)n1 the half-life [1] was less than 3 min and the microsomal CLint [2] was 290 µL/min/mg.
Cc1oc(-c2ccccc2)nc1CN1CCC[C@@H](C(=O)NCc2cccc(N)n2)C1 showed a half-life [1] of 20.5 min and a microsomal CLint [2] of 49 µL/min/mg.
COCC1CC(C(=O)NC[C@H]2CCCO2)CN(Cc2nc(N3CCOCC3)oc2C)C1 (stereo not given in full) showed a logD [3] of 1, a logD ([3]; read-out: logD) of 0.8 and a pKa [4] of 7.2.
For COC[C@H]1C[C@@H](C(=O)NC[C@H]2CCCO2)CN(Cc2nc(-c3ccccc3)oc2C)C1, the half-life [1] was 24.2 min and the microsomal CLint [2] was 40.3 µL/min/mg.
With CC[C@@H]1C[C@@H](C(=O)NC[C@@H]2CCCO2)CN(Cc2nc(-c3ccccc3)oc2C)C1 the half-life [1] was less than 3 min and the microsomal CLint [2] was 320 µL/min/mg.
Work on Cc1noc([C@@H]2C[C@@H](C(=O)NC[C@@H]3CCCO3)CN(Cc3nc(-c4ccccc4)oc3C)C2)n1 yielded a half-life [1] of 5.68 min and a microsomal CLint [2] of 182 µL/min/mg.
With Cc1oc(-c2ccccc2)nc1CN1C[C@H](C(=O)NCc2cccc(N)n2)C[C@@H](c2ccccc2)C1 the microsomal CLint [2] was greater than 300 µL/min/mg.
In the case of COC[C@@H]1C[C@@H](C(=O)NCC2CCOCC2)CN(Cc2[nH]c(-c3ccncn3)nc2C)C1, the half-life [1] is reported as 15.5 min and the microsomal CLint [2] is reported as 63 µL/min/mg.
COC[C@@H]1C[C@@H](C(=O)NCC2CCOCC2)CN(Cc2nc(N3CCOCC3)oc2C)C1 showed a half-life [1] of 30.8 min and a microsomal CLint [2] of 31.7 µL/min/mg.
Work on Cc1cccc(CNC(=O)[C@@H]2C[C@@H](c3nnc(C)o3)CN(Cc3nc(-c4ccccc4)oc3C)C2)n1 yielded a microsomal CLint [2] of 290 µL/min/mg.
Work on Cc1cccc(CNC(=O)[C@@H]2C[C@@H](c3nc(C)no3)CN(Cc3nc(-c4ccccc4)oc3C)C2)n1 yielded a microsomal CLint [2] of 105 µL/min/mg.
With CC[C@H]1C[C@@H](C(=O)NCC2CCOCC2)CN(Cc2nc(N3CCOCC3)oc2C)C1 the half-life [1] was 24.1 min and the microsomal CLint [2] was 40.6 µL/min/mg.
Compound CC[C@H]1C[C@@H](C(=O)NC[C@H]2CCCO2)CN(Cc2nc(-c3ccccc3)oc2C)C1 has a half-life [1] of 8.15 min and a microsomal CLint [2] of 120 µL/min/mg.
With CC[C@@H]1C[C@@H](C(=O)NC[C@H]2CCCO2)CN(Cc2nc(-c3ccccc3)oc2C)C1 the half-life [1] was less than 3 min and the microsomal CLint [2] was greater than 320 µL/min/mg.
COC[C@H]1C[C@@H](C(=O)NC[C@H]2CCCO2)CN(Cc2nc(N3CCOCC3)oc2C)C1 showed a half-life [1] greater than 120 min and a microsomal CLint [2] of less than 8 µL/min/mg.
For COC[C@@H]1C[C@@H](C(=O)NC[C@H]2CCCO2)CN(Cc2nc(-c3ccccc3)oc2C)C1, the half-life [1] was 4.2 min and the microsomal CLint [2] was 233 µL/min/mg.
COC[C@@H]1C[C@@H](C(=O)NC[C@H]2CCCO2)CN(Cc2nc(N3CCOCC3)oc2C)C1 gave a half-life [1] of 23.7 min and a microsomal CLint [2] of 41 µL/min/mg.
Compound COC[C@H]1C[C@@H](C(=O)NCc2cccc(C)n2)CN(Cc2nc(-c3ccccc3)oc2C)C1 has a half-life [1] of 9.17 min and a microsomal CLint [2] of 99.5 µL/min/mg.
In the case of CC[C@H]1C[C@@H](C(=O)NCc2cccc(C)n2)CN(Cc2nc(-c3ccccc3)oc2C)C1, the half-life [1] is reported as 7.71 min and the microsomal CLint [2] is reported as 118 µL/min/mg.
In the case of COC[C@@H]1C[C@@H](C(=O)NCC2CCOCC2)CN(Cc2nc(-c3ccccc3)oc2C)C1, the half-life [1] is reported as 4.09 min and the microsomal CLint [2] is reported as 239 µL/min/mg.
Work on CC[C@@H]1C[C@@H](C(=O)NCc2cccc(N)n2)CN(Cc2nc(N3CCOCC3)oc2C)C1 yielded a half-life [1] of 8.9 min and a microsomal CLint [2] of 110 µL/min/mg.
CC[C@@H]1C[C@@H](C(=O)NC[C@H]2CCCO2)CN(Cc2nc(-c3ccncn3)[nH]c2C)C1 showed a microsomal CLint [2] of 190 µL/min/mg.
With COC[C@H]1C[C@H](C(=O)NCc2cccc(C)n2)CN(Cc2nc(-c3ccccc3)oc2C)C1 the half-life [1] was less than 3 min and the microsomal CLint [2] was 304 µL/min/mg.
Work on CC[C@@H]1C[C@@H](C(=O)NCC2CCOCC2)CN(Cc2nc(-c3ccccc3)oc2C)C1 yielded a half-life [1] of less than 3 min and a microsomal CLint [2] of 320 µL/min/mg.
With CC[C@@H]1C[C@@H](C(=O)NC[C@@H]2CCCO2)CN(Cc2nc(N3CCOCC3)oc2C)C1 the half-life [1] was 7.45 min and the microsomal CLint [2] was 131 µL/min/mg.
CC[C@H]1C[C@@H](C(=O)NC[C@@H]2CCCO2)CN(Cc2nc(N3CCOCC3)oc2C)C1 showed a half-life [1] of 51.7 min and a microsomal CLint [2] of 18.9 µL/min/mg.
With Cc1cccc(CNC(=O)C2CCCN(Cc3nc(-c4ccccc4)oc3C)C2)n1 (stereo not given) the half-life [1] was 5.76 min and the microsomal CLint [2] was 158 µL/min/mg.
In the case of Cc1cccc(CNC(=O)[C@H]2C[C@H](c3nc(C)no3)CN(Cc3nc(-c4ccccc4)oc3C)C2)n1, the half-life [1] is reported as less than 3 min and the microsomal CLint [2] is reported as 290 µL/min/mg.
Work on Cc1oc(-c2ccccc2)nc1CN1CCC[C@@H](C(=O)NC[C@@H]2CCCO2)C1 yielded a half-life [1] of 14.1 min and a microsomal CLint [2] of 69.1 µL/min/mg.
For CC[C@@H]1C[C@@H](C(=O)NCc2cccc(N)n2)CN(Cc2nc(-c3ccccc3)oc2C)C1, the half-life [1] was 3.47 min and the microsomal CLint [2] was 281 µL/min/mg.
For CC[C@@H]1C[C@@H](C(=O)NCC2CCOCC2)CN(Cc2nc(N3CCOCC3)oc2C)C1, the half-life [1] was 6.88 min and the microsomal CLint [2] was 142 µL/min/mg.
Work on Cc1cccc(CNC(=O)C2CN(Cc3nc(-c4ccccc4)oc3C)CCO2)n1 (stereo not given) yielded an IC50 [5] greater than 10 µM.
In the case of COC[C@H]1C[C@@H](C(=O)NCC2CCOCC2)CN(Cc2nc(-c3ccncn3)[nH]c2C)C1, the half-life [1] is reported as 49.2 min and the microsomal CLint [2] is reported as 19.9 µL/min/mg.
Work on CC[C@@H]1C[C@@H](C(=O)NCc2cccc(C)n2)CN(Cc2nc(-c3ccccc3)oc2C)C1 yielded a clearance [6] of 98 mL/min/kg, a bioavailability [7] of 7% and a Vd [8] of 1.4 L/kg.
CC[C@H]1C[C@H](C(=O)NCc2cccc(C)n2)CN(Cc2nc(-c3ccccc3)oc2C)C1 showed a half-life [1] of 3 min and a microsomal CLint [2] of 304 µL/min/mg.
For Cc1cccc(CNC(=O)[C@@H]2CCN(Cc3nc(-c4ccccc4)oc3C)C2)n1, the IC50 [5] was greater than 10 µM.
Cc1oc(-c2ccccc2)nc1CN1CCCC(C(=O)NCC2CCOCC2)C1 (stereo not given) gave a half-life [1] of 9.34 min and a microsomal CLint [2] of 105 µL/min/mg.
In the case of Cc1oc(-c2ccccc2)nc1CN1CCC[C@@H](C(=O)NC[C@H]2CCCO2)C1, the half-life [1] is reported as 11.6 min and the microsomal CLint [2] is reported as 84 µL/min/mg.
In the case of CC[C@@H]1C[C@@H](C(=O)NC[C@@H]2CCCO2)CN(Cc2[nH]c(-c3ccncn3)nc2C)C1, the half-life [1] is reported as 5 min and the microsomal CLint [2] is reported as 195 µL/min/mg.
With CC[C@H]1C[C@@H](C(=O)NCc2cccc(N)n2)CN(Cc2nc(N3CCOCC3)oc2C)C1 the half-life [1] was 31.1 min and the microsomal CLint [2] was 31.4 µL/min/mg.
With COC[C@H]1C[C@@H](C(=O)NCC2CCOCC2)CN(Cc2nc(N3CCOCC3)oc2C)C1 the half-life [1] was 50.7 min and the microsomal CLint [2] was 19.3 µL/min/mg.
